Each compound was assayed on HCV replicon (assay: HCV replicon assay (luciferase, 5-2 Luc replicon cells)). Settings: Hepatitis C virus, 24 hours with compound, luciferase activity.
Format: cell-based
Text: In one embodiment, the inhibitory activity of the compounds can be confirmed in a replicon assay that assesses the ability of a test compound to block or inhibit HCV replication in replicon cells. One example of a suitable replicon assay is the liver cell-line Huh 7-based replicon assay described in Lohmann et al., 1999, Science 285:110–113. A specific example of this replicon assay which utilizes luciferase translation is provided in the Examples Section. In one embodiment of this assay, the amount of test compound that yields a 50% reduction in translation as compared to a control cell (IC50) may be determined.
The inhibitory activity of certain exemplary compounds of the invention was confirmed using an HCV replicon assay. The HCV replicon can include such features as the HCV 5′ untranslated region including the HCV IRES, the HCV 3′ untranslated region, selected HCV genes encoding HCV polypeptides, selectable markers, and a reporter gene such as luciferase, GFP, etc. In the assay, actively dividing 5–2 Luc replicon-comprising cells (obtained from Ralf Bartenschlager; see Lohmann et al., 1999, Science 285:110–113) were seeded at a density of between about 5,000 and 7,500 cells/well onto 96 well plates (about 90 μl of cells per well) and incubated at 37° C. and 5% CO2 for 24 hours. Then, the test compound (in a volume of about 10 μl) was added to the wells at various concentrations and the cells were incubated for an additional 24 hours before luciferase assay. Briefly, the Bright-Glo reagent was diluted 1:1 with PBS and 100 μl of diluted reagent was added to each well. After 5 min of incubation at room temperature, luciferin emission was quantified with a luminometer. In this assay, the amount of test compound that yielded a 50% reduction in luciferase activity (IC50) was determined.

SMILES	IC50 [µM]
O=[N+]([O-])c1cccc(-c2cnc(-c3c(Cl)cccc3Cl)s2)c1 [Compound 17, 2-(2,6-dichlorophenyl)-5-(3-nitrophenyl)thiazole]	> 10
O=C(Nc1ccccc1-c1cc(-c2c(Cl)cccc2Cl)no1)C(Cl)Cl [Compound 18, 2,2-Dichloro-N-[2-[3-(2,6-dichlorophenyl)-5-isoxazolyl]phenyl]Acetamide]	> 10
O=C(Nc1cccc(-c2cnc(-c3c(Cl)cccc3Cl)s2)c1)C(Cl)Cl [Compound 19, 2,2-Dichloro-N-[3-[2-(2,6-dichlorophenyl)-5-thiazolyl]phenyl]Acetamide]	> 10
Nc1cccc(-c2cnc(-c3c(Cl)cccc3Cl)s2)c1 [Compound 20, 2-(2,6-dichlorophenyl)-5-(3-aminophenyl)thiazole]	> 10
O=C(Nc1cccc(-c2cc(-c3c(Cl)cccc3Cl)on2)c1)C(Cl)Cl [Compound 39, 2,2-Dichloro-N-[3-[5-(2,6-dichlorophenyl)-3-isoxazolyl]phenyl]Acetamide]	< 10
O=C(Nc1ccc(-c2cc(-c3ccccc3Cl)no2)cc1)C(Cl)Cl [Compound 55, 2,2-Dichloro-N-[4-[3-(2-chlorophenyl)-5-isoxazolyl]phenyl]Acetamide]	≤ 10
O=C(Nc1ccc(-c2cc(-c3c(F)cccc3F)no2)cc1)C(Cl)Cl [Compound 59, 2,2-Dichloro-N-[4-[3-(2,6-difluorophenyl)-5-isoxazolyl]phenyl]Acetamide]	≤ 10
O=C(Nc1ccc(-c2cc(-c3c(Cl)cccc3Cl)no2)cc1)C(Cl)Cl [Compound 60, 2,2-Dichloro-N-[4-[3-(2,6-dichlorophenyl)-5-isoxazolyl]phenyl]Acetamide]	> 10

Reference: patent publication US7220745B2, “Heterocyclic compounds useful to treat HCV” (Rigel Pharmaceuticals, priority 2003, dated 2007)
